Reference: US7138361B2, “Herbicidal heterocycles” (E. I. du Pont de Nemours and Company, priority 2000, dated 2006)

Columns and labels:
Type in all cases: in vivo
[1] = system: barnyardgrass (Echinochloa crus-galli); test: Test B postemergence; conditions: 13 to 15 days
Method in brief: (§1)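 Greenhouse test: chemicals are formulated in a surfactant-containing non-phytotoxic solvent and applied either preemergence to planted seeds or postemergence to plants 2 to 18 cm tall. Response is rated visually versus controls after 13 to 15 days, 0 meaning no effect and 100 complete control.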

[2] = system: corn (Zea mays); test: Test B postemergence; conditions: 13 to 15 days
Method in brief: as §1

[3] = system: wheat (Triticum aestivum); test: Test B postemergence; conditions: 13 to 15 days
Method in brief: as §1

[4] = system: wild oat (Avena fatua); test: Test B postemergence; conditions: 13 to 15 days
Method in brief: as §1

[5] = system: Nightshade; test: Test C preemergence
[6] = system: corn (Zea mays); test: Test C preemergence; conditions: for Plant response rating (0 to 100), Corn: visual evaluation after 12 to 14 days
Method in brief: (§2)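 Visual injury scores of 0–100, with 100 meaning complete control, were given relative to controls after 12–14 days in the greenhouse. Treatments used a surfactant-containing non-phytotoxic solvent formulation, sprayed on seeded pots preemergence or on 1–4-leaf plants of 2–18 cm postemergence.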

[7] = system: johnsongrass (Sorghum halepense); test: Test C preemergence; conditions: for Plant response rating (0 to 100), Johnsongrass: visual evaluation after 12 to 14 days
Method in brief: as §2

[8] = system: kochia (Kochia scoparia); test: Test C preemergence; conditions: for Plant response rating (0 to 100), Kochia: visual evaluation after 12 to 14 days
Method in brief: as §2

[9] = system: lambsquarters (Chenopodium album); test: Test C preemergence; conditions: for Plant response rating (0 to 100), Lambsquarters: visual evaluation after 12 to 14 days
Method in brief: as §2

[10] = system: pigweed (Amaranthus retroflexus); test: Test C preemergence; conditions: for Plant response rating (0 to 100), Pigweed: visual evaluation after 12 to 14 days
Method in brief: as §2

[11] = system: soybean (Glycine max); test: Test C preemergence; conditions: for Plant response rating (0 to 100), Soybean: visual evaluation after 12 to 14 days
Method in brief: as §2

[12] = system: woolly cupgrass (Eriochloa villosa); test: Test C preemergence; conditions: for Plant response rating (0 to 100), Cupgrass, Woolly: visual evaluation after 12 to 14 days
Method in brief: as §2

[13] = system: yellow nutsedge (Cyperus esculentus); test: Test C preemergence; conditions: for Plant response rating (0 to 100), Nutsedge: visual evaluation after 12 to 14 days
Method in brief: as §2

[14] = system: barnyardgrass (Echinochloa crus-galli); test: Test C flooded paddy test; conditions: for Barnyardgrass plant response rating: Flooded Paddy, scale 0 to 100, 0 no effect, 100 complete control; for Plant response rating, Barnyardgrass: flooded paddy test, scale 0 to 100 (0 no effect, 100 complete control)
Method in brief: (§3)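 Rice and three paddy weeds were grown to the 2-leaf stage under flooded conditions, then treated and kept in a greenhouse for 12–14 days. Response was rated visually against untreated controls on a 0–100 scale, where 100 is complete control.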

[15] = system: duck salad (Heteranthera limosa); test: Test C flooded paddy test; conditions: for Ducksalad plant response rating: Flooded Paddy, scale 0 to 100, 0 no effect, 100 complete control; for Plant response rating, Ducksalad: flooded paddy test, scale 0 to 100 (0 no effect, 100 complete control)
Method in brief: as §3

[16] = system: rice (Oryza saliva); test: Test C flooded paddy test; conditions: for Rice plant response rating: Flooded Paddy, scale 0 to 100, 0 no effect, 100 complete control; for Plant response rating, Rice: flooded paddy test, scale 0 to 100 (0 no effect, 100 complete control)
Method in brief: as §3

[17] = system: smallflower flatsedge (Cyperus difformis); test: Test C flooded paddy test; conditions: for Flatsedge plant response rating: Flooded Paddy, scale 0 to 100, 0 no effect, 100 complete control; for Plant response rating, Flatsedge: flooded paddy test, scale 0 to 100 (0 no effect, 100 complete control)
Method in brief: as §3

[18] = system: Nightshade; test: Test C preemergence; conditions: visual evaluation after 12 to 14 days
[19] = system: Sunflower; test: Test C preemergence; conditions: scale 0 to 100, 0 no effect, 100 complete control
[20] = Rate 125 g/ha, scale 0 (no effect) to 100 (complete control)
[21] = Rate 500 g/ha, scale 0 to 100, 0 is no effect, 100 is complete control
[22] = Rate 62 g/ha; scale 0 to 100, 0 no effect, 100 complete control
[23] = Rate 125 g/ha, scale 0 to 100, 0 no effect, 100 complete control
[24] = Preemergence, Rate 500 g/ha, scale 0 to 100
[25] = Rate 62 g/ha, scale 0 to 100, 0 no effect, 100 complete control
[26] = preemergence, Rate 31 g/ha, scale 0 to 100
[27] = preemergence, Rate 125 g/ha, scale 0 to 100, 0 no effect, 100 complete control
[28] = preemergence, Rate 250 g/ha, scale 0 to 100, 0 no effect, 100 complete control

SMILES: CC(C)(C)c1ccn(C2CCN(c3cccc(OC(F)(F)F)c3)C2=O)n1 (stereo not shown) [Compound 49]
- Plant response rating, Barnyardgrass [1, 20]: 0
- Plant response rating, Barnyardgrass [1, 21]: 80
- Plant response rating, Corn [2, 20]: 0
- Plant response rating, Corn [2, 21]: 0
- Plant response rating, Wheat [3, 20]: 0
- Plant response rating, Wheat [3, 21]: 0
- Plant response rating, Wild Oat [4, 20]: 0
- Plant response rating, Wild Oat [4, 21]: 30
- Plant response rating, Nightshade ([5]; Rate 31 g/ha, scale 0 to 100): 0
- Plant response rating, Nightshade [5, 22]: 0
- Plant response rating, Nightshade [5, 23]: 30
- Plant response rating, Nightshade ([5]; Rate 500 g/ha, scale 0 to 100): 90
- Plant response rating, Corn [6, 24]: 0
- Plant response rating, Corn [6, 25]: 0
- Plant response rating, Corn [6, 26]: 0
- Plant response rating (0 to 100), Corn ([6]; preemergence, Rate 250 g/ha): 0
- Plant response rating, Corn [6, 27]: 0
- Plant response rating, Johnsongrass [7, 24]: 90
- Plant response rating, Johnsongrass [7, 25]: 0
- Plant response rating, Johnsongrass [7, 26]: 0
- Plant response rating (0 to 100), Johnsongrass ([7]; preemergence, Rate 250 g/ha): 50
- Plant response rating, Johnsongrass [7, 27]: 0
- Plant response rating, Kochia [8, 24]: 100
- Plant response rating, Kochia [8, 25]: 90
- Plant response rating, Kochia [8, 26]: 50
- Plant response rating (0 to 100), Kochia ([8]; preemergence, Rate 250 g/ha): 100
- Plant response rating, Kochia [8, 27]: 90
- Plant response rating, Lambsquarters [9, 24]: 100
- Plant response rating, Lambsquarters [9, 25]: 100
- Plant response rating, Lambsquarters [9, 26]: 100
- Plant response rating (0 to 100), Lambsquarters ([9]; preemergence, Rate 250 g/ha): 100
- Plant response rating, Lambsquarters [9, 27]: 100
- Plant response rating, Pigweed [10, 24]: 100
- Plant response rating, Pigweed [10, 25]: 100
- Plant response rating, Pigweed [10, 26]: 70
- Plant response rating (0 to 100), Pigweed ([10]; preemergence, Rate 250 g/ha): 100
- Plant response rating, Pigweed [10, 27]: 100
- Plant response rating, Soybean [11, 24]: 80
- Plant response rating, Soybean [11, 25]: 0
- Plant response rating, Soybean [11, 26]: 0
- Plant response rating (0 to 100), Soybean ([11]; preemergence, Rate 250 g/ha): 50
- Plant response rating, Soybean [11, 27]: 40
- Plant response rating, Cupgrass, Woolly [12, 24]: 100
- Plant response rating, Cupgrass, Woolly [12, 25]: 30
- Plant response rating, Cupgrass, Woolly [12, 26]: 20
- Plant response rating (0 to 100), Cupgrass, Woolly ([12]; preemergence, Rate 250 g/ha): 70
- Plant response rating, Cupgrass, Woolly [12, 27]: 60
- Plant response rating, Nutsedge [13, 24]: 0
- Plant response rating, Nutsedge [13, 25]: 40
- Plant response rating, Nutsedge [13, 26]: 30
- Plant response rating (0 to 100), Nutsedge ([13]; preemergence, Rate 250 g/ha): 0
- Plant response rating, Nutsedge [13, 27]: 50
- Barnyardgrass plant response rating ([14]; Rate 250 g/ha): 100
- Barnyardgrass plant response rating ([14]; Rate 500 g/ha): 100
- Plant response rating, Barnyardgrass ([14]; Rate 62 g/ha): 100
- Plant response rating, Barnyardgrass ([14]; Rate 125 g/ha): 100
- Ducksalad plant response rating ([15]; Rate 250 g/ha): 90
- Ducksalad plant response rating ([15]; Rate 500 g/ha): 100
- Plant response rating, Ducksalad ([15]; Rate 62 g/ha): 50
- Plant response rating, Ducksalad ([15]; Rate 125 g/ha): 70
- Rice plant response rating ([16]; Rate 250 g/ha): 30
- Rice plant response rating ([16]; Rate 500 g/ha): 90
- Plant response rating, Rice ([16]; Rate 62 g/ha): 20
- Flatsedge plant response rating ([17]; Rate 250 g/ha): 100
- Flatsedge plant response rating ([17]; Rate 500 g/ha): 100
- Plant response rating, Flatsedge ([17]; Rate 62 g/ha): 100
- Plant response rating, Flatsedge ([17]; Rate 125 g/ha): 100
- Plant response rating (0 to 100), Nightshade ([18]; Rate 250 g/ha): 50
- Plant response rating, Sunflower ([19]; Rate 125 g/ha): 20

SMILES: CCC(C)c1ccn(C2CCN(c3ccc(C)c(OC)c3)C2=O)n1 (stereo not shown) [Compound 80]
- Plant response rating, Barnyardgrass [1, 20]: 0
- Plant response rating, Barnyardgrass [1, 21]: 10
- Plant response rating, Corn [2, 20]: 0
- Plant response rating, Corn [2, 21]: 0
- Plant response rating, Wheat [3, 20]: 0
- Plant response rating, Wheat [3, 21]: 0
- Plant response rating, Wild Oat [4, 20]: 0
- Plant response rating, Wild Oat [4, 21]: 0
- Plant response rating, Nightshade [5, 22]: 90
- Plant response rating, Nightshade ([5]; Rate 125 g/ha; scale 0 to 100, 0 no effect, 100 complete control): 100
- Plant response rating, Nightshade ([5]; Rate 250 g/ha, scale 0 to 100, 0 no effect, 100 complete control): 100
- Plant response rating, Corn [6, 25]: 0
- Plant response rating, Corn [6, 23]: 30
- Plant response rating (0 to 100), Corn ([6]; preemergence, Rate 250 g/ha): 0
- Plant response rating (0 to 100), Corn ([6]; preemergence, Rate 500 g/ha): 60
- Plant response rating, Johnsongrass [7, 25]: 20
- Plant response rating, Johnsongrass [7, 23]: 60
- Plant response rating (0 to 100), Johnsongrass ([7]; preemergence, Rate 250 g/ha): 60
- Plant response rating (0 to 100), Johnsongrass ([7]; preemergence, Rate 500 g/ha): 70
- Plant response rating, Kochia [8, 25]: 100
- Plant response rating, Kochia [8, 23]: 100
- Plant response rating (0 to 100), Kochia ([8]; preemergence, Rate 250 g/ha): 100
- Plant response rating (0 to 100), Kochia ([8]; preemergence, Rate 500 g/ha): 100
- Plant response rating, Lambsquarters [9, 25]: 100
- Plant response rating, Lambsquarters [9, 23]: 100
- Plant response rating (0 to 100), Lambsquarters ([9]; preemergence, Rate 500 g/ha): 100
- Plant response rating, Lambsquarters [9, 28]: 100
- Plant response rating, Pigweed [10, 23]: 0
- Plant response rating (0 to 100), Pigweed ([10]; preemergence, Rate 500 g/ha): 40
- Plant response rating, Pigweed [10, 28]: 0
- Plant response rating, Soybean [11, 23]: 30
- Plant response rating (0 to 100), Soybean ([11]; preemergence, Rate 500 g/ha): 100
- Plant response rating, Soybean [11, 28]: 50
- Plant response rating, Cupgrass, Woolly [12, 25]: 90
- Plant response rating, Cupgrass, Woolly [12, 23]: 100
- Plant response rating (0 to 100), Cupgrass, Woolly ([12]; preemergence, Rate 250 g/ha): 100
- Plant response rating (0 to 100), Cupgrass, Woolly ([12]; preemergence, Rate 500 g/ha): 100
- Plant response rating, Nutsedge [13, 25]: 0
- Plant response rating, Nutsedge [13, 23]: 20
- Plant response rating (0 to 100), Nutsedge ([13]; preemergence, Rate 500 g/ha): 0
- Plant response rating, Nutsedge [13, 28]: 0
- Barnyardgrass plant response rating ([14]; Rate 250 g/ha): 90
- Barnyardgrass plant response rating ([14]; Rate 500 g/ha): 90
- Plant response rating, Barnyardgrass ([14]; Rate 62 g/ha): 0
- Plant response rating, Barnyardgrass ([14]; Rate 125 g/ha): 60
- Ducksalad plant response rating ([15]; Rate 250 g/ha): 100
- Ducksalad plant response rating ([15]; Rate 500 g/ha): 100
- Plant response rating, Ducksalad ([15]; Rate 62 g/ha): 80
- Plant response rating, Ducksalad ([15]; Rate 125 g/ha): 100
- Rice plant response rating ([16]; Rate 250 g/ha): 70
- Rice plant response rating ([16]; Rate 500 g/ha): 90
- Plant response rating, Rice ([16]; Rate 125 g/ha): 50
- Flatsedge plant response rating ([17]; Rate 250 g/ha): 90
- Flatsedge plant response rating ([17]; Rate 500 g/ha): 100
- Plant response rating, Flatsedge ([17]; Rate 62 g/ha): 90
- Plant response rating, Flatsedge ([17]; Rate 125 g/ha): 90
- Plant response rating (0 to 100), Nightshade ([18]; Rate 500 g/ha): 100
- Plant response rating, Sunflower ([19]; Rate 250 g/ha): 60
